# Values of other authors as cited in patent publication US11351152B2, “Method and composition for treating seizure disorders” (India Globalization Capital, Inc., priority 2016, dated 2022).
# Experiments:
# patients = details: 200-300 mg of cannabidiol in combination with regular medication
# epileptic patients = details: 200-300 mg of cannabidiol per day in combination with standard antiepileptic drugs, 12 epileptic patients
# single patient = details: 900-1200 mg of cannabidiol a day for 10 months
smiles,measurement,setting,value
C=C(C)[C@@H]1CCC(C)=C[C@H]1c1c(O)cc(CCCCC)cc1O [cannabidiol],improvement versus placebo,patients,showed improvement over those that received a placebo
same,unwanted side effect,patients,Mild sedation
same,seizure frequency,epileptic patients,no significant improvement in seizure frequency
same,frequency of seizures,single patient,markedly reduced the frequency of seizures
